Active and inactive are the calls of the source.
Legend:
[1] = molecular target: T1, Protein RecA (Mycobacterium tuberculosis, UniProt P9WHJ3); assay: Fluorescence Cell-Free Homogeneous Dose Retest to Identify Inhibitors of RecA-Intein Splicing Activity. [Related pubchem assays (depositor defined):AID2097, AID2223, AID489010, AID492950]; format: functional
T1 sequence (P9WHJ3 whole entry): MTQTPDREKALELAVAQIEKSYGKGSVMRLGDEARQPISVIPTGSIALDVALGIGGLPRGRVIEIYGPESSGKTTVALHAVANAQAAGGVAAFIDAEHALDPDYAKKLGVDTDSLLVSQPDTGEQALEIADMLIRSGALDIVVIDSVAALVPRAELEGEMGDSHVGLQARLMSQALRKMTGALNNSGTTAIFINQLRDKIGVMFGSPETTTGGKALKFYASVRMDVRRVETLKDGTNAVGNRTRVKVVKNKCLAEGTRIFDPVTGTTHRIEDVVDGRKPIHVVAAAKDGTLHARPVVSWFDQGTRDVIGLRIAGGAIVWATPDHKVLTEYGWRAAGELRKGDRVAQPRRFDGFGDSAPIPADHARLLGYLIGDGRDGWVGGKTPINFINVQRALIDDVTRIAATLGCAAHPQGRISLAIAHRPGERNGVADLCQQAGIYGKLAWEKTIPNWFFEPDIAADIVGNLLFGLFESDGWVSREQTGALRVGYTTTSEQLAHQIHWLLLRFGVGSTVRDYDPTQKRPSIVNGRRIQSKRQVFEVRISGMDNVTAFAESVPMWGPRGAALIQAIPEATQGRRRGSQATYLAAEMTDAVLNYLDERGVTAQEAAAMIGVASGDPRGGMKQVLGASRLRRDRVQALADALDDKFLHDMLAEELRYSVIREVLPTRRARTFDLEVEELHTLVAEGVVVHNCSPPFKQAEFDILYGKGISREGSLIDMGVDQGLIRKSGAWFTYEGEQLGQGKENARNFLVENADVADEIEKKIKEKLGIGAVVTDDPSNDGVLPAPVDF

[2] = viability of uninfected HEp-2 cells – cell-based, HTS, cytotoxicity control for RSV inhibitor project, dose response (AID 2410); format: functional; settings: human respiratory syncytial virus
[3] = molecular target: T2, Replicative DNA helicase DnaB (Mycobacterium tuberculosis, UniProt P9WMR3); assay: DnaB intein splicing inhibitors, dose response, biochemical, cell-free fluorescence (AID 449749); format: functional
T2 sequence (P9WMR3 whole entry): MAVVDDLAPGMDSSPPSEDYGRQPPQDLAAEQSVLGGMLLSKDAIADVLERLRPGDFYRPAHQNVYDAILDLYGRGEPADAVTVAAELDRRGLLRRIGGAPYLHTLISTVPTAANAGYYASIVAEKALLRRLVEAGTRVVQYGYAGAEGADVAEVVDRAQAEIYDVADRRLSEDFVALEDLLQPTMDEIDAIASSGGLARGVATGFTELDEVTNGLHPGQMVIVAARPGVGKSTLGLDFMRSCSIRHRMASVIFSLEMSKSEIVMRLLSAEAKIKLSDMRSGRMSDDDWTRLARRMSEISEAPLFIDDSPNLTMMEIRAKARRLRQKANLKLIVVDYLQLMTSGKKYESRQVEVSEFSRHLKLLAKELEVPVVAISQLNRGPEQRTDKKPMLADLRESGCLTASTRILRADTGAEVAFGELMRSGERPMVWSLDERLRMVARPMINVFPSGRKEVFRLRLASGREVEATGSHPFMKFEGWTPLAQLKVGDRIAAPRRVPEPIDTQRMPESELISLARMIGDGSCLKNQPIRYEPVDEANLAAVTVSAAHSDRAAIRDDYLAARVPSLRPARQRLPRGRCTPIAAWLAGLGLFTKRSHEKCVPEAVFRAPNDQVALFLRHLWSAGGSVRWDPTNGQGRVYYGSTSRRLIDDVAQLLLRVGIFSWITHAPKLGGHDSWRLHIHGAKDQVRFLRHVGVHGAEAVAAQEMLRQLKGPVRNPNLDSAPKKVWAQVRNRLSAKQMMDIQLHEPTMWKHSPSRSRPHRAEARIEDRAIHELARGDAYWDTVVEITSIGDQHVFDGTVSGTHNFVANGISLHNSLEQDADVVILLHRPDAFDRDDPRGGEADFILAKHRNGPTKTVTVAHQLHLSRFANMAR

[4] = molecular target: T3, Leucine aminopeptidase (Plasmodium falciparum 3D7, UniProt Q8IL11); assay: P. falciparum M17LAP inhibitors, primary screen, biochemical, fluorogenic H-Leu-NHMec substrate, 1536-well (AID 1619); format: functional
T3 sequence (Q8IL11 whole entry): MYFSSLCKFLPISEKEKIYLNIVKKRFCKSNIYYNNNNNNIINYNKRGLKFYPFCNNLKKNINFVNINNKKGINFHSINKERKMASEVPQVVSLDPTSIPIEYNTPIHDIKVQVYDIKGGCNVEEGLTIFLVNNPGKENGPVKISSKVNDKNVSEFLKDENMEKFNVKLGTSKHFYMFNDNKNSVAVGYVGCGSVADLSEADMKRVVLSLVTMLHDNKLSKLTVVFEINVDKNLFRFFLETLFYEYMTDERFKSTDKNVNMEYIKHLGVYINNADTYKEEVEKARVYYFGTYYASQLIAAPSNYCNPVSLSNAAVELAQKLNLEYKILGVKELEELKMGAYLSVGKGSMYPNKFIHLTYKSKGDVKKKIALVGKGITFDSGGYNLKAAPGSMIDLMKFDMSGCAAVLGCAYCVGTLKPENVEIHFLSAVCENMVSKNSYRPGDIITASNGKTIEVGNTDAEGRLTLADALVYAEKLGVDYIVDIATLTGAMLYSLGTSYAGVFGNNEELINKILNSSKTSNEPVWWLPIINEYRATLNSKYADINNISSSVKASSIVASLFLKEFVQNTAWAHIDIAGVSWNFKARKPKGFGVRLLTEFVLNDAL

[5] = molecular target: T4, Heat shock factor protein 1 (Mus musculus, UniProt P38532); assay: enhancement of HSF1-driven luciferase signal – cell-based, NIH3T3, luminescence, dose retest, confirmation (AID 435004); format: functional;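 note: stress induced by proteasome inhibitor MG132 added 30 min after compound; luciferase reporter driven by HSF1 response element in NIH3T3 cells; actives raise luminescence as potentiators of the MG132 stress response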
T4 sequence (P38532 whole entry): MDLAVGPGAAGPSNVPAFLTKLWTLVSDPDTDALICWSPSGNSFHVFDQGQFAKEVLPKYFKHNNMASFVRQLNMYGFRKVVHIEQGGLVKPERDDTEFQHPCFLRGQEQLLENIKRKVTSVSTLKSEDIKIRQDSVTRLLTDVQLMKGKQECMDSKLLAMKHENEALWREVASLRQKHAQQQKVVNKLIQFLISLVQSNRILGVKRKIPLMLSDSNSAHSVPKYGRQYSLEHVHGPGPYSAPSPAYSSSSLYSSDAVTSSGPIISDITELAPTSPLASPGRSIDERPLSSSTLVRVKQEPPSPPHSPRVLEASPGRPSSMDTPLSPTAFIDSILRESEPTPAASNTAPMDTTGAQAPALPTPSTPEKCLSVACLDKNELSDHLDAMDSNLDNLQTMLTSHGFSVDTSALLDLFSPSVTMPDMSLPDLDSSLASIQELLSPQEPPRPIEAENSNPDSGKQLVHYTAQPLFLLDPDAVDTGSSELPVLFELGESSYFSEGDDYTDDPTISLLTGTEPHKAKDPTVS

[6] = molecular target: T5, Microphthalmia-associated transcription factor (Homo sapiens, UniProt O75030); assay: reducers of TRPM1 reporter luminescence, concentration series – cell-based, SK-MEL-5, cherry-picked, set 3, MITF inhibitor project, dose response (AID 493073); format: functional;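 note: SK-MEL-5 melanoma cells with luciferase driven by the MITF target TRPM1 promoter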
T5 sequence (O75030 whole entry): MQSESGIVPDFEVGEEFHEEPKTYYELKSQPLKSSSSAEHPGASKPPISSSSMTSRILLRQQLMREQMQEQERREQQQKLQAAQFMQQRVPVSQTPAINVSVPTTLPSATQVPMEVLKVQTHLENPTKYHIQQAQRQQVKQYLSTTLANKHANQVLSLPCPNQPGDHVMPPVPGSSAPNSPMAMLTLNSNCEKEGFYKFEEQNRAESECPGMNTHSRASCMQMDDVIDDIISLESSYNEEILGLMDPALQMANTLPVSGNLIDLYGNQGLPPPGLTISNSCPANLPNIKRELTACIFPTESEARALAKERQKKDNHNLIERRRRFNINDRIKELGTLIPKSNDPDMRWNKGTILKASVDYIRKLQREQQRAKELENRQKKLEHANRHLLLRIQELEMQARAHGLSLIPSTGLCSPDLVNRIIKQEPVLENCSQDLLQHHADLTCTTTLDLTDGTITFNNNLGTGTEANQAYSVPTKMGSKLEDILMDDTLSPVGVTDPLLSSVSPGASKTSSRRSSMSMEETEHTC

[7] = Trypanosoma cruzi growth suppression in host cells – NIH3T3 host cells, beta-gal luminescence, confirmation (AID 2044); format: functional, cell-based;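 note: intracellular parasites grown in NIH/3T3 mouse fibroblasts as host cells; luminescent beta-galactosidase reporter signal from transgenic T. cruzi replicating inside host cells; inhibitors lower the luminescence signal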
[8] = NIH3T3 cell viability loss – ATP luminescence, mouse fibroblasts, counter-screen, dose response (AID 2010); format: functional, cell-based;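 note: cells exposed to compound for about 90 hours before reading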
[9] = molecular target: Luciferin 4-monooxygenase (Photinus pyralis, UniProt P08659); assay: inhibition of purified Photinus pyralis luciferase – biochemical, luminescence, dose response (AID 1891)
Chain of Luciferin 4-monooxygenase (P08659 whole entry): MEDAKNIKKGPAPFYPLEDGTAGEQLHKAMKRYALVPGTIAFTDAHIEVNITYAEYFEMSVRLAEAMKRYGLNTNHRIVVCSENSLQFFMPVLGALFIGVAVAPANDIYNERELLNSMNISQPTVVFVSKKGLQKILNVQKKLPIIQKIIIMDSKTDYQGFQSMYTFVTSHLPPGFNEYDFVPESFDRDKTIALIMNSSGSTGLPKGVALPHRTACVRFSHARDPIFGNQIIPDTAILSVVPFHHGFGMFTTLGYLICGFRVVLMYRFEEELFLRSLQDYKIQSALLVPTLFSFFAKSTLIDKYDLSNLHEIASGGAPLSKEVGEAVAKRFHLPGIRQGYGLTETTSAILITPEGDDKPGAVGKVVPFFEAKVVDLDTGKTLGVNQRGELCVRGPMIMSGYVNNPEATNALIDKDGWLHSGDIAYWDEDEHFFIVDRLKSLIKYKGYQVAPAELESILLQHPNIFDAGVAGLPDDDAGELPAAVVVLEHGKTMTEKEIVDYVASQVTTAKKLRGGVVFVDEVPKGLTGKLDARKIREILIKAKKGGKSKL

[10] = Luminescence Cell-Based Dose Confirmation HTS to Identify Inhibitors of Platelet Dense Granule Release. [Related pubchem assays: 1663 (Primary HTS), 1678 (Summary of Project)]; format: functional
[11] = molecular target: T6, Calpain-2 catalytic subunit (Sus scrofa, UniProt P43367); assay: m-calpain protease blockers, concentration series – biochemical, fluorogenic peptide substrate, dose response (AID 1420); format: functional
T6 sequence (P43367 whole entry): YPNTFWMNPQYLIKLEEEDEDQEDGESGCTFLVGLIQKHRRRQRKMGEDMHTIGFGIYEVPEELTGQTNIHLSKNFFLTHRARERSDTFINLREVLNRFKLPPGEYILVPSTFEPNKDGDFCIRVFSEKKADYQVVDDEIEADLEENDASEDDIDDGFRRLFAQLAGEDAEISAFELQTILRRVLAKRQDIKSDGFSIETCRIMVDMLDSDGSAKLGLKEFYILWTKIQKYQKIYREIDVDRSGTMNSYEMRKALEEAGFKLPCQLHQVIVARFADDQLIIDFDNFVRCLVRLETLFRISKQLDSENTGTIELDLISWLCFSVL

[12] = molecular target: T7, Rac GTPase-activating protein 1 (Homo sapiens, UniProt Q9H0H5); assay: blockers of MgcRacGAP-driven Rac1 GTP hydrolysis – biochemical, ADP Hunter fluorescence, primary and confirmatory, confirmation (AID 624330); format: functional
T7 sequence (Q9H0H5 whole entry): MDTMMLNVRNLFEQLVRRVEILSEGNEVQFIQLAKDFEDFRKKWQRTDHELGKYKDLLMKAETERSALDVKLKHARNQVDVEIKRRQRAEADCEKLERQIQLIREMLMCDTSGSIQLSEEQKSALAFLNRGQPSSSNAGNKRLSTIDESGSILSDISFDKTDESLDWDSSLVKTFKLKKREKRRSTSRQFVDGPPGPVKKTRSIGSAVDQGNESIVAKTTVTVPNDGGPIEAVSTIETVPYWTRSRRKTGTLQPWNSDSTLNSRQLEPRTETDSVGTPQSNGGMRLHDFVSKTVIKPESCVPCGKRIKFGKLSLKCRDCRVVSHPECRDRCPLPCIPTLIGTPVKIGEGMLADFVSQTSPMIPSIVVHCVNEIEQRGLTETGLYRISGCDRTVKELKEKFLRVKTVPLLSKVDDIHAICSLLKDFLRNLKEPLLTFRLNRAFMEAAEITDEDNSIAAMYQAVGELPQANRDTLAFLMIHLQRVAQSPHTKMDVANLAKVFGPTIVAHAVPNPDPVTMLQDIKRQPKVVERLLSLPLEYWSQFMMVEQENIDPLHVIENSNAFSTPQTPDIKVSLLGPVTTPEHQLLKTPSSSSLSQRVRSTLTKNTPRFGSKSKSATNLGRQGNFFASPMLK

Compound: CCOC(=O)C1Nc2c(F)cc(C)cc2C2c3ccccc3CC12 (stereo unspecified)
- EC50 [1]: 36 µM (active)
- CC50 [2]: 31.9 µM (active)
- AC50 [3]: 11.4 µM (active)

Compound: O=C(CSc1nnc(-c2ccc(NS(=O)(=O)c3ccccc3)cc2)o1)NCC1CCCO1 (stereo unspecified)
- IC50 [4]: 6.04 µM (active)

Compound: COc1cc2c(cc1OC)C(C)N(S(=O)(=O)c1cnc(Cl)c(Cl)c1)CC2 (stereo unspecified)
- EC50 [5]: 29.3 µM (active)
- AC50 [6]: 12.1 µM (active)

Compound: O=C(CSc1nc2ccccc2c(=O)n1-c1ccccc1)N1CCCc2ccccc21
- CC50 [2]: 39 µM (active)

Compound: COc1ccc2c(c1OC)C(=O)OC2Nc1nc(-c2cc3ccccc3oc2=O)cs1 (stereo unspecified)
- IC50 [4]: 5.03 µM (active)

Compound: CCOc1ccc2nc(NC(=O)C3CCCN(S(=O)(=O)c4cccs4)C3)sc2c1 (stereo unspecified)
- CC50 [2]: 24.3 µM (active)
- EC50 [7]: 2.51 µM (active)
- EC50 [8]: > 60 µM (not active)

Compound: Cc1cccc(-n2ncc3c(NC(C)C)ncnc32)c1
- CC50 [2]: 34.4 µM (active)

Compound: O=C(CCCl)Nc1nc2c(s1)CCc1ccccc1-2
- EC50 [5]: 22.2 µM (active)
- CC50 [2]: 4.52 µM (active)

Compound: Nc1n[nH]c(N)c1N=Nc1ccc(Cl)cc1
- IC50 [4]: 12.5 µM (active)

Compound: COC(=O)/C=C1\SC(N/N=C/c2ccc(Cl)cc2)=NC1=O
- EC50 [9]: 41.5 µM (active)
- EC50 [10]: > 112 µM (not active)
- CC50 [2]: 23.5 µM (active)

Compound: COc1cc(/C=N/NP(=S)(c2ccccc2)c2ccccc2)ccc1O
- CC50 [2]: 30.3 µM (active)
- IC50 [11]: 14.2 µM (not active)
- IC50 [12]: 109 µM (active)

From ChEMBL document CHEMBL1201862, “PubChem BioAssay data set” (2004)
